Patent US8298993B2, “Herbicidal composition and method of use thereof” (Syngenta Crop Protection LLC, priority 2006, dated 2012)

Key:
[1] = test system: white clover (Trifolium repens); assay: Glasshouse trial, control of white clover, post-emergence application; type: in vivo; details: 16 DAT
Description: A glasshouse trial was carried out. White clover seeds were sown into standard glasshouse potting mix (1:1 v/v Promix:Vero sand soil) contained in 10 cm square plastic pots. Treatments were replicated three times. Mesotrione (in the form Callisto®480SE) was applied post-emergence to white clover (Trifolium repens) at either 50 g ai/ha or 100 g ai/ha with or without s-metolachlor (in the form Dual Magnum®). […] The adjuvant system was X-77 at 0.1% v/v in deionised water. 200 liters of herbicide/adjuvant system was used per hectare. General weed control was evaluated at 10 and 16 days after treatment (DAT). It is noted that all herbicides were applied at reduced field rates because herbicide effects are magnified in a glasshouse environment. Rates were chosen to give a 50 to 70% level of control with herbicides applied alone as this allows for detection of any synergistic effect when tank mixtures are used. […] The results were evaluated using the Colby formula. The expected result for (A+B) is (A+B)−(A×B/100) where A and B are the ‘observed’ results for A and B on their own.

[2] = test system: large crabgrass (Digitaria sanguinalis); assay: Glasshouse trial, control of large crabgrass, post-emergence application; type: in vivo
Description: A glasshouse trial was carried out. Large crabgrass seeds were sown into standard glasshouse potting mix (1:1 v/v Promix:Vero sand soil) contained in 10 cm square plastic pots. Treatments were replicated three times. Mesotrione (in the form Callisto® 480SE) was applied post-emergence to large crabgrass (Digitaria sanguinalis) at either 12 g ai/ha or 24 g ai/ha with or without s-metolachlor (in the form Dual Magnum®). When used, s-metolachlor was applied at a rate of 500 g ai/ha or 1000 g ai/ha. The adjuvant system was X-77 at 0.1% v/v in deionised water. 200 liters of herbicide/adjuvant system was used per hectare. General weed control was evaluated at 7 and 14 days after treatment (DAT). It is noted that all herbicides were applied at reduced field rates because herbicide effects are magnified in a glasshouse environment. Rates were chosen to give a 50 to 70% level of control with herbicides applied alone as this allows for detection of any synergistic effect when tank mixtures are used. […] The results were evaluated using the Colby formula. The expected result for (A+B) is (A+B)−(A×B/100) where A and B are the ‘observed’ results for A and B on their own.

[3] = test system: large crabgrass; assay: Control of large crabgrass, pre-emergent application of the herbicides; type: in vivo, Digitaria sanguinalis; details: s-metolachlor 5 g ai/ha in the absence of mesotrione

CS(=O)(=O)c1ccc(C(=O)C2C(=O)CCCC2=O)c([N+](=O)[O-])c1 [mesotrione, 2-(2′-nitro-4′-methylsulphonylbenzoyl)-1,3-cyclohexanedione]
control of white clover, herbicide alone ([1]; mesotrione alone at the lower rate (50 g ai/ha)): 32% | control of large crabgrass, herbicide alone ([2]; mesotrione alone, post-emergence, 7 DAT): relatively high

s-metolachlor
control of white clover, herbicide alone ([1]; s-metolachlor on its own at 500 g ai/ha): 3% | control of large crabgrass, herbicide alone ([2]; first experiment, s-metolachlor on its own (500 or 1000 g ai/ha), post-emergence, 14 DAT): no control | control of large crabgrass, herbicide alone ([2]; repeat experiment, s-metolachlor 500 g ai/ha in the absence of mesotrione, 14DAT): 7% | control of large crabgrass, herbicide alone ([2]; repeat experiment, s-metolachlor 1000 g ai/ha in the absence of mesotrione, 14DAT): 7% | control of large crabgrass, herbicide alone [3]: 95%
